Experimental findings from patent US11999727B2 (Tango Therapeutics, Inc., priority 2020, dated 2024) are described below.

Test [1] has as its target T1, PRMT5 (Homo sapiens, UniProt O14744).
T1 construct: purchased Viva (custom protein)
As to the kind of experiment: PRMT5 biochemical IC50 assay with SAM as cofactor. The conditions noted are these: PRMT5, SAM as cofactor; read-out: SAM IC50.

In test [2] the test system is HAP1 MTAP-deleted cell line. As to the kind of experiment: Viability assay, MTAP-deleted cell line. The test is classed as cell-based. To be noted: Homo sapiens, read-out: HAP1 MTAP deleted viability. From the text: Table 1 additionally indicates IC50 values in a viability assay for the MTAP-deleted cell line (column 10), indicating the effect of treatment with compound on cell survival.

The test system of test [3] is HAP1 MTAP-deleted cell line. Nature of the test: SDMA in-cell western assay, HAP1 MTAP-deleted. Format: cell-based. To be noted: for IC50: Homo sapiens, HAP1, SDMA in-cell western, HAP1 MTAP-deleted; for MTAP intact/deleted ratio: SDMA in-cell western. A digest of the protocol: (§1)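 MTAP-null vs endogenous-MTAP HAP1 isogenic cells; in-cell western SDMA readout; IC50 per line.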

The subject of test [4] is HAP1 MTAP-intact cell line. Nature of the test: SDMA in-cell western assay, HAP1 MTAP-intact. Format: cell-based. The conditions noted are these: Homo sapiens, HAP1, SDMA in-cell western, HAP1 MTAP-intact; read-out: MTAP HAP1 intact IC50. A digest of the protocol:
as §1

For test [5], the target named is T1, PRMT5. Nature of the test: PRMT5 biochemical IC50 assay with no cofactor. To be noted: PRMT5, no cofactor. From the text: Table 1 indicates IC50 values (μM) against PRMT5 for exemplary compounds in the presence of SAM as cofactor, with no cofactor, and with MTA as cofactor, respectively (columns 4-6). […] Ki values can be calculated from the IC50 values as described in the Examples section. As detailed in the Examples section, for the assay performed in the presence of SAM, IC50=Ki×1.5 (Ki=IC50/1.5).

Test [6] concerns the target T1, PRMT5. Nature of the test: PRMT5 biochemical IC50 assay with MTA as cofactor. To be noted: PRMT5, MTA as cofactor; read-out: MTA IC50.
The mark [7] stands for this setting: HAP1, viability assay, MTAP-deleted cell line.
Where [8] appears, read: read-out: HAP1 MTAP deleted IC50.
Setting [9] is: IC50 ratio HAP1 MTAP-intact / HAP1 MTAP-deleted.
The mark [10] stands for this setting: read-out: HAP 1 MTAP deleted IC50.
Where [11] appears, read: read-out: No Cofactor/ rel IC50.
Where [12] appears, read: IC50 ratio HAP1 MTAP-intact vs HAP1 MTAP-deleted.

T1 sequence (O14744 whole entry): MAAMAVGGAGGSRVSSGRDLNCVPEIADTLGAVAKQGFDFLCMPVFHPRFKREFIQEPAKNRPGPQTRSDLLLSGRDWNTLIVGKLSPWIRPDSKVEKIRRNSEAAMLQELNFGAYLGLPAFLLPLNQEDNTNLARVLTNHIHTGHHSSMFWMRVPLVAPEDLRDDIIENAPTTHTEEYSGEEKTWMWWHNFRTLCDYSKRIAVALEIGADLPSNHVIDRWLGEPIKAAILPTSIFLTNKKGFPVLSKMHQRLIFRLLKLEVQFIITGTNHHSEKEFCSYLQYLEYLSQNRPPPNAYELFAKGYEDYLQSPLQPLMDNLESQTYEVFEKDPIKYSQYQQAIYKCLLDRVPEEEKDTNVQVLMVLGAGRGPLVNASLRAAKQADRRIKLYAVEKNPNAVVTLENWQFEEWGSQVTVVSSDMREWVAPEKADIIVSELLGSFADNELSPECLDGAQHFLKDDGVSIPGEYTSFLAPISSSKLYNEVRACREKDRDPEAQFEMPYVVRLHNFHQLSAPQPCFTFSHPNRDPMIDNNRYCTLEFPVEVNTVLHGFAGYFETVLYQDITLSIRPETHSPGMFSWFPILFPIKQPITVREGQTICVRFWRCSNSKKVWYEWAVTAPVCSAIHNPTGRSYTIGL
T1 sequence (Q9BQA1 whole entry partner): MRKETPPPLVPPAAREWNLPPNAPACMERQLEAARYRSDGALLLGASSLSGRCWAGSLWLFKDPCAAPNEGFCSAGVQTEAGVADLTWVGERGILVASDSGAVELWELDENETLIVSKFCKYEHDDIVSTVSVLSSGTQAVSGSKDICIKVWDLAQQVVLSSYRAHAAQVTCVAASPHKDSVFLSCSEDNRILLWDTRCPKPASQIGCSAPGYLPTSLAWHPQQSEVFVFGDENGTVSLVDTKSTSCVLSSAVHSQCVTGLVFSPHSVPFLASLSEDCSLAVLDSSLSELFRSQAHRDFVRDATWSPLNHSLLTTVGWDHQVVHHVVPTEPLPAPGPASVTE

With `Cc1cc(NC(=O)C(=O)N2CC(C)CC(C)C2c2ccccc2)cnc1N` (mixture of isomers) [Compound 314, N-(6-amino-5-methyl-3-pyridyl)-2-(3,5-dimethyl-2-phenyl-1-piperidyl)-2-oxo-acetamide], the IC50 in test [1] is greater than 500 nM; in test [2] (setting [7]), 1000 to 10000 nM; in test [3] (setting [8]) it was 100 to 1000 nM; in test [4], greater than 1000 nM; in test [5] (read-out: No Cofactor/rel IC50), 50 to 500 nM; in test [6], 50 to 500 nM. In addition, the MTAP intact/deleted ratio entry in test [3] (setting [9]) is “A (an IC50 ratio greater than or equal to 10 fold)”.
On to `CCc1cc(NC(=O)C(=O)N2C[C@@H](C)CC[C@@H]2c2ccc3sc(CC(C)N(C)C)nc3c2)cnc1N` (mixture of isomers) [Compound 1345, N-(6-amino-5-ethylpyridin-3-yl)-2-((2R,5S)-2-(2-(2-(dimethylamino)propyl)benzo[d]thiazol-5-yl)-5-methylpiperidin-1-yl)-2-oxoacetamide], for which the IC50 was 50 to 500 nM in test [1]; less than 1000 nM in test [2] (HAP1, viability, HAP1 MTAP-deleted cell line); less than 100 nM in test [3] (setting [10]); less than 100 nM in test [4]; less than 50 nM in test [5] (setting [11]); less than 50 nM in test [6]. The “MTAP intact/deleted ratio” value in test [3] (setting [9]) was “A (an IC50 ratio greater than or equal to 10 fold)”.
Take `Cc1cncc(NC(=O)C(=O)N2C[C@H](C)CC[C@H]2c2cccc(C)c2)c1` (racemic) [Compound 8, rac-2-[(2R,5S)-5-methyl-2-(m-tolyl)-1-piperidyl]-N-(5-methyl-3-pyridyl)-2-oxo-acetamide]: the IC50 in test [1] is greater than 500 nM; in test [2] (setting [7]), greater than 10000 nM; in test [3] (setting [10]) it was greater than 1000 nM; in test [4], greater than 1000 nM; in test [5] (setting [11]) it was greater than 500 nM; in test [6] it was 50 to 500 nM. Moreover, the “MTAP intact/deleted ratio” value in test [3] (setting [9]) was “C (an IC50 ratio of less than 3 fold)”.
Take `Cc1cncc(NC(=O)C(=O)N2C[C@@H](C)CC[C@@H]2c2cccs2)c1` (single isomer, unassigned) [Compound 76]: the IC50 is greater than 500 nM in test [1]; greater than 10000 nM in test [2] (setting [7]); greater than 1000 nM in test [4]; greater than 500 nM in test [5] (setting [11]); greater than 500 nM in test [6].
As for `Cc1cc(NC(=O)C(=O)N2C[C@H](C)CC[C@H]2C23CC(C(N)=O)(C2)C3)cnc1N` (single isomer, unassigned) [Compound 1070], the IC50 in test [1] was greater than 500 nM; in test [3] (setting [8]), greater than 1000 nM; in test [4], greater than 1000 nM; in test [5] (read-out: No Cofactor/rel IC50), greater than 500 nM; in test [6], greater than 500 nM. Besides, the MTAP intact/deleted ratio entry in test [3] (setting [12]) is “B (an IC50 ratio greater than or equal to 3 fold but lower than 10 fold)”.
With `Cc1cc(NC(=O)C(=O)N2C[C@@H](C)CC[C@@H]2c2cc[nH]n2)cnc1N` (single isomer, unassigned) [Compound 1071], the IC50 in test [1] is 50 to 500 nM; in test [3] (setting [8]) it was greater than 1000 nM; in test [4], greater than 1000 nM; in test [5] (read-out: No Cofactor/rel IC50), 50 to 500 nM; in test [6], less than 50 nM. For the same compound, the MTAP intact/deleted ratio entry in test [3] (setting [12]) is “C (an IC50 ratio of less than 3 fold)”.
With `CCc1cc(NC(=O)C(=O)N2C[C@@H](C)CC[C@@H]2c2cc3cn[nH]c3s2)cnc1N` (single isomer, unassigned) [Compound 1075], the IC50 is 50 to 500 nM in test [1]; less than 100 nM in test [3] (setting [8]); 100 to 1000 nM in test [4]; less than 50 nM in test [5] (read-out: No Cofactor/rel IC50); less than 50 nM in test [6]. The MTAP intact/deleted ratio entry in test [3] (setting [12]) is on record as “A (an IC50 ratio greater than or equal to 10 fold)”.
Turning to `COc1ncc(NC(=O)C(=O)N2C[C@@H](C)CC[C@@H]2c2ccc(F)cc2)cc1C(F)F` [Compound 1057, N-[5-(Difluoromethyl)-6-methoxy-3-pyridyl]-2-[(2R,5S)-2-(4-fluorophenyl)-5-methyl-1-piperidyl]-2-oxo-acetamide], the IC50 was greater than 500 nM in test [1]; greater than 1000 nM in test [3] (setting [10]); greater than 1000 nM in test [4]; 50 to 500 nM in test [5] (read-out: No Cofactor/rel IC50); 50 to 500 nM in test [6]. The MTAP intact/deleted ratio result in test [3] (setting [9]) is “B (an IC50 ratio greater than or equal to 3 fold but lower than 10 fold)”.
